Our source for the IC50 values is patent US9718819B2 (Merck Sharp & Dohme Corp., priority 2012, dated 2017).

This assay deals with HIV-1 RT wild-type enzyme (Human immunodeficiency virus type 1 group M subtype B (isolate HXB2) (HIV-1), UniProt P04585). The experiment in a line: HIV-1 reverse transcriptase inhibitory activity (RT polymerase assay). The format is biochemical. The conditions noted are these: HIV-1 RT wild-type enzyme 83 pM; RNA-dependent DNA polymerase activity; read-out: IC50. How it is done: Determination of HIV-1 Reverse Transcriptase Inhibitory Activity
The heterodimeric nucleic acid substrate used in the HIV-1 RT polymerase reactions was generated by annealing the DNA primer, biotinylated pD500 (Sigma Aldrich, USA, 5′-biotin-ttg aaa tga ctg cgg tac ggc-3′), SEQ ID NO. 1 to the nucleotide RNA template t500 (derived from hepatitis C virus [HCV] sequence, IBA, Germany, 5′-[…]-3′), SEQ ID NO 2). […] The mixture was then preincubated on an orbital shaker for 30 min at room temperature in microtiter plates (Costar 3365, Corning, USA). A polymerization reaction was initiated by the addition of RNA template/pD500 DNA primer hybrid (16.6 nM final of RNA/DNA hybrid) and dNTPs (2 μM dATP, dGTP, dCTP and 66.6 nM Ru-dUTP (Meso Scale Discovery, USA)). Plate was sealed and incubated for 5-10 min at room temperature on an orbital shaker. Plate was then incubated for 90 min at 37° C. and reactions quenched with 60 μl quenching buffer (50 mM EDTA, 0.7% BSA, 0.7% Tween-20, 0.017% sodium azide in PBS). The resulting solution was incubated at room temperature for an additional 5 min and then 50 μL was transferred to pre-blocked Avidin plates (L15AA, Meso Scale Discovery). Each well of Avidin plate was blocked for 1 h at room temperature with 100 μL 5% BSA in PBS. Blocking solution was removed by tapping vigorously on filter paper to remove all excess liquid. Reaction on pre-blocked avidin plate proceeded for 60 min at room temperature and then contents removed by tapping vigorously on filter paper to remove all excess liquid. After washing plate 3 times with 150 μL 1×PBS and blotting dry between cycles, 150 μL 1× Read Buffer T (4× Read Buffer T, Meso Scale Discovery) was added and incubated for 5 min at room temperature before counting on a Sector Imager […] (Meso Scale Discovery). Titration curves and IC50 values were calculated using a four parameter logisitc fit according to standard procedures. Briefly, % Inhibition=100×((sample raw value)−(mean value of the low control or 0% inhibition))/((mean value of wells representing 100% inhbition)−(mean value of 0% inhbition)). In this assay, low control wells contain DMSO (0% inhbition) and 100% inhibition wells contain 1 μM efavirenz.

For orientation: pIC50 means −log10 of the IC50, conventionally taken in molar units.

pIC50: −log10 of the molar value.

Regarding `N#Cc1cc(Cl)cc(Oc2c(C(F)(F)F)ncn(Cc3cc(-c4ccc(Cl)c(F)c4)c(=O)[nH]n3)c2=O)c1` [Example 46, 3-chloro-5-((1-((5-(4-chloro-3-fluorophenyl)-6-oxo-1,6-dihydropyridazin-3-yl)methyl)-6-oxo-4-(trifluoromethyl)-1,6-dihydropyrimidin-5-yl)oxy)benzonitrile], the pIC50 was 8.30. As for `N#Cc1cc(Cl)cc(Oc2c(C(F)(F)F)ncn(Cc3cc(-c4cc(Cl)ccc4F)c(=O)[nH]n3)c2=O)c1` [Example 47, 3-chloro-5-((1-((5-(5-chloro-2-fluorophenyl)-6-oxo-1,6-dihydropyridazin-3-yl)methyl)-6-oxo-4-(trifluoromethyl)-1,6-dihydropyrimidin-5-yl)oxy)benzonitrile], the figure is 7.96; as for `N#Cc1cc(Cl)cc(Oc2c(C(F)(F)F)ncn(Cc3cc(-c4cc(F)ccc4F)c(=O)[nH]n3)c2=O)c1` [Example 48, 3-chloro-5-((1-((5-(2,5-difluorophenyl)-6-oxo-1,6-dihydropyridazin-3-yl)methyl)-6-oxo-4-(trifluoromethyl)-1,6-dihydropyrimidin-5-yl)oxy)benzonitrile], 8.05; as for `Cc1ccc(F)cc1-c1cc(Cn2cnc(C(F)(F)F)c(Oc3cc(Cl)cc(C#N)c3)c2=O)n[nH]c1=O` [Example 50], 6.78.

For `COc1cccc(F)c1-c1cc(Cn2cnc(C(F)(F)F)c(Oc3cc(Cl)cc(C#N)c3)c2=O)n[nH]c1=O` [Example 51, 3-chloro-5-((1-((5-(2-fluoro-6-methoxyphenyl)-6-oxo-1,6-dihydropyridazin-3-yl)methyl)-6-oxo-4-(trifluoromethyl)-1,6-dihydropyrimidin-5-yl)oxy)benzonitrile], the pIC50 is 6.45. With `COc1ccc(-c2cc(Cn3cnc(C(F)(F)F)c(Oc4cc(Cl)cc(C#N)c4)c3=O)n[nH]c2=O)cc1F` [Example 52, 3-chloro-5-((1-((5-(3-fluoro-4-methoxyphenyl)-6-oxo-1,6-dihydropyridazin-3-yl)methyl)-6-oxo-4-(trifluoromethyl)-1,6-dihydropyrimidin-5-yl)oxy)benzonitrile], the pIC50 was 8.40. The figure for `CC(C)(C)c1ccc(-c2cc(Cn3cnc(C(F)(F)F)c(Oc4cc(Cl)cc(C#N)c4)c3=O)n[nH]c2=O)cc1` [Example 53, 3-((1-((5-(4-(tert-butyl)phenyl)-6-oxo-1,6-dihydropyridazin-3-yl)methyl)-6-oxo-4-(trifluoromethyl)-1,6-dihydropyrimidin-5-yl)oxy)-5-chlorobenzonitrile] is 7.15; for `N#Cc1cc(Cl)cc(Oc2c(C(F)(F)F)ncn(Cc3cc(-c4cccc(C#N)c4)c(=O)[nH]n3)c2=O)c1` [Example 54, 3-chloro-5-((1-((5-(3-cyanophenyl)-6-oxo-1,6-dihydropyridazin-3-yl)methyl)-6-oxo-4-(trifluoromethyl)-1,6-dihydropyrimidin-5-yl)oxy)benzonitrile] it is 8.10; for `N#Cc1cc(Cl)cc(Oc2c(C(F)(F)F)ncn(Cc3cc(-c4cc(F)c(F)c(F)c4)c(=O)[nH]n3)c2=O)c1` [Example 55, 3-chloro-5-((6-oxo-1-((6-oxo-5-(3,4,5-trifluorophenyl)-1,6-dihydropyridazin-3-yl)methyl)-4-(trifluoromethyl)-1,6-dihydropyrimidin-5-yl)oxy)benzonitrile] it is 7.96.

Consider `Cc1cc(F)ccc1-c1cc(Cn2cnc(C(F)(F)F)c(Oc3cc(Cl)cc(C#N)c3)c2=O)n[nH]c1=O` [Example 56, 3-chloro-5-((1-((5-(4-fluoro-2-methylphenyl)-6-oxo-1,6-dihydropyridazin-3-yl)methyl)-6-oxo-4-(trifluoromethyl)-1,6-dihydropyrimidin-5-yl)oxy)benzonitrile], for which the pIC50 is 7.12. For `N#Cc1cc(Cl)cc(Oc2c(C(F)(F)F)ncn(Cc3cc(-c4cccc5c4OCC5)c(=O)[nH]n3)c2=O)c1` [Example 57, 3-chloro-5-((1-((5-(2,3-dihydrobenzofuran-7-yl)-6-oxo-1,6-dihydropyridazin-3-yl)methyl)-6-oxo-4-(trifluoromethyl)-1,6-dihydropyrimidin-5-yl)oxy)benzonitrile], the pIC50 is 7.96. The figure for `Cc1ccc(-c2cc(Cn3cnc(C(F)(F)F)c(Oc4cc(Cl)cc(C#N)c4)c3=O)n[nH]c2=O)cc1F` [Example 58, 3-chloro-5-((1-((5-(3-fluoro-4-methylphenyl)-6-oxo-1,6-dihydropyridazin-3-yl)methyl)-6-oxo-4-(trifluoromethyl)-1,6-dihydropyrimidin-5-yl)oxy)benzonitrile] is 8.40; for `COc1ccc(F)cc1-c1cc(Cn2cnc(C(F)(F)F)c(Oc3cc(Cl)cc(C#N)c3)c2=O)n[nH]c1=O` [Example 59, 3-chloro-5-((1-((5-(5-fluoro-2-methoxyphenyl)-6-oxo-1,6-dihydropyridazin-3-yl)methyl)-6-oxo-4-(trifluoromethyl)-1,6-dihydropyrimidin-5-yl)oxy)benzonitrile] it is 6.90; for `Cc1cc(F)cc(-c2cc(Cn3cnc(C(F)(F)F)c(Oc4cc(Cl)cc(C#N)c4)c3=O)n[nH]c2=O)c1` [Example 60, 3-chloro-5-((1-((5-(3-fluoro-5-methylphenyl)-6-oxo-1,6-dihydropyridazin-3-yl)methyl)-6-oxo-4-(trifluoromethyl)-1,6-dihydropyrimidin-5-yl)oxy)benzonitrile] it is 8.15. Turning to `COc1cc(F)cc(-c2cc(Cn3cnc(C(F)(F)F)c(Oc4cc(Cl)cc(C#N)c4)c3=O)n[nH]c2=O)c1` [Example 61, 3-chloro-5-((1-((5-(3-fluoro-5-methoxyphenyl)-6-oxo-1,6-dihydropyridazin-3-yl)methyl)-6-oxo-4-(trifluoromethyl)-1,6-dihydropyrimidin-5-yl)oxy)benzonitrile], the pIC50 is 7.96. The figure for `N#Cc1cc(Cl)cc(Oc2c(C(F)(F)F)ncn(Cc3cc(-c4ccc(F)c(F)c4F)c(=O)[nH]n3)c2=O)c1` [Example 62, 3-chloro-5-((6-oxo-1-((6-oxo-5-(2,3,4-trifluorophenyl)-1,6-dihydropyridazin-3-yl)methyl)-4-(trifluoromethyl)-1,6-dihydropyrimidin-5-yl)oxy)benzonitrile] is 8.00. As for `COc1ccc(F)c(-c2cc(Cn3cnc(C(F)(F)F)c(Oc4cc(Cl)cc(C#N)c4)c3=O)n[nH]c2=O)c1` [Example 63, 3-chloro-5-((1-((5-(2-fluoro-5-methoxyphenyl)-6-oxo-1,6-dihydropyridazin-3-yl)methyl)-6-oxo-4-(trifluoromethyl)-1,6-dihydropyrimidin-5-yl)oxy)benzonitrile], the figure is 8.00.

For the compound `N#Cc1cc(Cl)cc(Oc2c(C(F)(F)F)ncn(Cc3cc(-c4ccc5c(c4)CCO5)c(=O)[nH]n3)c2=O)c1` [Example 64, 3-chloro-5-((1-((5-(2,3-dihydrobenzofuran-5-yl)-6-oxo-1,6-dihydropyridazin-3-yl)methyl)-6-oxo-4-(trifluoromethyl)-1,6-dihydropyrimidin-5-yl)oxy)benzonitrile], the pIC50 is 8.52. Regarding `N#Cc1cc(Cl)cc(Oc2c(C(F)(F)F)ncn(Cc3cc(-c4ccn[nH]4)c(=O)[nH]n3)c2=O)c1` [Example 65, 3-chloro-5-((6-oxo-1-((6-oxo-5-(1H-pyrazol-5-yl)-1,6-dihydropyridazin-3-yl)methyl)-4-(trifluoromethyl)-1,6-dihydropyrimidin-5-yl)oxy)benzonitrile], the pIC50 was 8.30.
